Drawing on ChEMBL document CHEMBL1136243, “Synthetic dihydropacidamycin antibiotics: a modified spectrum of activity for the pacidamycin class” (2003), this text covers MIC for eleven molecules.

Molecules are shown by their SMILES. Values after ≈ are worked out from the molar mass of the structure shown.

Type in all cases: functional
The subject of assay [1] is Mycobacterium tuberculosis. The assay can be described thus: Antibacterial activity against Mycobacterium tuberculosis TN913.
The test system of assay [2] is Mycobacterium tuberculosis. The experiment in a line: Antibacterial activity against Mycobacterium tuberculosis H37Rv.
The test system of assay [3] is Mycobacterium tuberculosis. The experiment in a line: Antibacterial activity against Mycobacterium tuberculosis TN1618 (P).
The subject of assay [4] is Mycobacterium tuberculosis. The experiment in a line: Antibacterial activity against Mycobacterium tuberculosis TN565 (W).
The subject of assay [5] is Escherichia coli. The assay can be described thus: Antibacterial activity against Escherichia coli wild-type.
The test system of another assay is Pasteurella multocida. The assay can be described thus: Antibacterial activity against Pasteurella multocida wild-type.
The subject of the next assay is Pseudomonas aeruginosa. The assay can be described thus: Antibacterial activity against Pseudomonas aeruginosa wild-type.
The next assay deals with Acinetobacter baumannii. The experiment in a line: Antibacterial activity against Acinetobacter baumannii resistant to (ERY) erythromycin;.
Another assay relates to Citrobacter freundii. The assay can be described thus: Antibacterial activity against Citrobacter freundii resistant to (GEN) gentamicin; (ERY) erythromycin;.
The subject of assay [6] is Escherichia coli. The assay can be described thus: Antibacterial activity against Escherichia coli resistant to (GEN) gentamicin; (RIF) rifampicin; (SM) streptomycin; (SP) spectinomycin; (SU) sulfonamides; (TET) tetracycline; (Hg)mercury.
For assay [7], the system named is Klebsiella pneumoniae. The assay can be described thus: Antibacterial activity against Klebsiella pneumoniae.
For assay [8], the system named is Klebsiella pneumoniae. The experiment in a line: Antibacterial activity against Klebsiella pneumoniae resistant to (AMP) ampicillin; (GEN) gentamicin; NAL (nalidixic acid); (TET) tetracycline.
A further assay deals with Salmonella sp. The experiment in a line: Antibacterial activity against Salmonella species. resistant to (AMP) ampicillin; (ERY) erythromycin.
Another assay concerns Enterobacter cloacae. The experiment in a line: Antibacterial activity against Enterobacter cloacae resistant to (ERY) erythromycin;.
The test system of another assay is Citrobacter koseri. The experiment in a line: Antibacterial activity against Citrobacter diversus.
Assay [9] concerns Escherichia coli. The experiment in a line: Antibacterial activity against Escherichia coli resistant to (AMP) ampicillin;) KAN) kanamycin; (NM) neomycin; (RIF) rifampicin; (TET) tetracycline; (Hg)mercury.
Setting [10] is: Escherichia coli, read-out: MIC.

Broadly, the MIC is the least concentration at which growth counts as inhibited. `CC(C)C[C@H](N)C(=O)N(C)[C@@H](C)[C@H](NC(=O)[C@H](Cc1ccccc1)NC(=O)N[C@@H](Cc1c[nH]c2ccccc12)C(=O)O)C(=O)NC[C@H]1C[C@@H](O)[C@H](n2ccc(=O)[nH]c2=O)O1`: the MIC in [1] was determined as 30 mg/L (≈ 36.1 µM); in [2], 30 mg/L (≈ 36.1 µM); in assay [3], 10 mg/L (≈ 12 µM); in assay [4] it was 30 mg/L (≈ 36.1 µM).
In the case of `C[C@H](N)C(=O)N(C)[C@@H](C)[C@H](NC(=O)[C@H](Cc1ccccc1)NC(=O)N[C@@H](Cc1ccc2ccccc2c1)C(=O)O)C(=O)NC[C@H]1C[C@@H](O)[C@H](n2ccc(=O)[nH]c2=O)O1`, the minimal inhibitory concentration (MIC) in [1] was found to be 30 mg/L (≈ 37.5 µM); in assay [2] it was 30 mg/L (≈ 37.5 µM); in assay [3], 10 mg/L (≈ 12.5 µM); in assay [4], 30 mg/L (≈ 37.5 µM).
`CSCC[C@H](NC(=O)N[C@@H](Cc1ccc(O)cc1)C(=O)O)C(=O)N[C@H](C(=O)NC[C@H]1C[C@@H](O)[C@H](n2ccc(=O)[nH]c2=O)O1)[C@H](C)N(C)C(=O)[C@H](C)N`: the minimum inhibitory concentration (MIC) in [1], in [2], in assay [3] and in assay [4] was above 30 mg/L in each case.
On to `C[C@H](N)C(=O)N(C)[C@@H](C)[C@H](NC(=O)[C@H](Cc1ccc(F)cc1)NC(=O)N[C@@H](Cc1c[nH]c2ccccc12)C(=O)O)C(=O)NC[C@H]1C[C@@H](O)[C@H](n2ccc(=O)[nH]c2=O)O1`, for which the minimum inhibitory concentration (MIC) in assay [1] was found to be 8 mg/L (≈ 9.9 µM); in [2], 8 mg/L (≈ 9.9 µM); in assay [3], 8 mg/L (≈ 9.9 µM); in assay [4], 4 mg/L (≈ 4.95 µM).
For the molecule `C[C@H](N)C(=O)N(C)[C@@H](C)[C@H](NC(=O)[C@H](Cc1ccccc1)NC(=O)N[C@@H](Cc1c[nH]c2ccccc12)C(=O)O)C(=O)NC[C@H]1CC(O)[C@H](n2ccc(=O)[nH]c2=O)O1` (some centres undefined), the minimum inhibitory concentration (MIC) stood at 8 mg/L (≈ 10.1 µM) in assay [1], 8 mg/L (≈ 10.1 µM) in assay [2], 8 mg/L (≈ 10.1 µM) in [3] and 4 mg/L (≈ 5.06 µM) in assay [4].
For the molecule `CC(C)C[C@H](NC(=O)N[C@@H](Cc1c[nH]c2ccccc12)C(=O)O)C(=O)N[C@H](C(=O)NC[C@H]1C[C@@H](O)[C@H](n2ccc(=O)[nH]c2=O)O1)[C@H](C)N(C)C(=O)CN`, the MIC in assay [1], in assay [2], in [3] and in assay [4] was above 30 mg/L in each case.
Consider `C[C@@H]([C@H](NC(=O)[C@H](Cc1ccccc1)NC(=O)N[C@@H](Cc1c[nH]c2ccccc12)C(=O)O)C(=O)NC[C@H]1C[C@@H](O)[C@H](n2ccc(=O)[nH]c2=O)O1)N(C)C(=O)CN`, for which the minimal inhibitory concentration (MIC) worked out at 256 mg/L (≈ 330 µM) with Escherichia coli [5] (setting [10]), 64 mg/L (≈ 82.5 µM) in the assay with Pasteurella multocida and 8 mg/L (≈ 10.3 µM) against Pseudomonas aeruginosa.
Regarding `C[C@H](N)C(=O)N(C)[C@@H](C)[C@H](NC(=O)[C@H](Cc1ccc(F)cc1)NC(=O)N[C@@H](Cc1ccc(O)cc1)C(=O)O)C(=O)NC[C@H]1C[C@@H](O)[C@H](n2ccc(=O)[nH]c2=O)O1`, the minimal inhibitory concentration (MIC) in the assay with Acinetobacter baumannii is at least 64 mg/L; in the assay on Citrobacter freundii it was 1 mg/L (≈ 1.27 µM); against Escherichia coli [6], 8 mg/L (≈ 10.2 µM); against Escherichia coli [5], 4 mg/L (≈ 5.1 µM); in the assay with Escherichia coli [5] (setting [10]), 4 mg/L (≈ 5.1 µM); against Klebsiella pneumoniae [7] it was 32 mg/L (≈ 40.8 µM). The MIC in the assay on Klebsiella pneumoniae [8] was at least 64 mg/L; in assay [1], 8 mg/L (≈ 10.2 µM); in assay [2], 10 mg/L (≈ 12.7 µM); in [3], 10 mg/L (≈ 12.7 µM); in assay [4] it was 8 mg/L (≈ 10.2 µM); against Pasteurella multocida, 512 mg/L (≈ 652 µM). Besides, the minimal inhibitory concentration (MIC) in the assay on Pseudomonas aeruginosa was 64 mg/L (≈ 81.5 µM); against Salmonella sp., 8 mg/L (≈ 10.2 µM); with Enterobacter cloacae, at least 64 mg/L; with Citrobacter koseri, 16 mg/L (≈ 20.4 µM); against Escherichia coli [9], 8 mg/L (≈ 10.2 µM).
With `C[C@H](N)C(=O)N(C)[C@@H](C)[C@H](NC(=O)[C@H](Cc1ccc(-c2ccccc2)cc1)NC(=O)N[C@@H](Cc1c[nH]c2ccccc12)C(=O)O)C(=O)NC[C@H]1C[C@@H](O)[C@H](n2ccc(=O)[nH]c2=O)O1`, the minimal inhibitory concentration (MIC) in assay [1] was determined as 4 mg/L (≈ 4.62 µM); in assay [2] it was 8 mg/L (≈ 9.24 µM); in [3], 10 mg/L (≈ 11.5 µM); in assay [4], 4 mg/L (≈ 4.62 µM).
`C[C@H](N)C(=O)N(C)[C@@H](C)[C@H](NC(=O)[C@H](Cc1ccc(C(F)(F)F)cc1)NC(=O)N[C@@H](Cc1c[nH]c2ccccc12)C(=O)O)C(=O)NC[C@H]1C[C@@H](O)[C@H](n2ccc(=O)[nH]c2=O)O1`: the MIC in assay [1] came out at 4 mg/L (≈ 4.66 µM); in assay [2], 8 mg/L (≈ 9.33 µM); in [3], 8 mg/L (≈ 9.33 µM); in assay [4] it was 4 mg/L (≈ 4.66 µM).
Consider `C[C@H](NC(=O)N[C@@H](Cc1c[nH]c2ccccc12)C(=O)O)C(=O)N[C@H](C(=O)NC[C@H]1C[C@@H](O)[C@H](n2ccc(=O)[nH]c2=O)O1)[C@H](C)N(C)C(=O)[C@@H](N)Cc1ccc(O)cc1` [PACIDAMYCIN], for which the minimum inhibitory concentration (MIC) was 256 mg/L (≈ 318 µM) with Escherichia coli [5] (setting [10]); above 30 mg/L in assay [1]; above 30 mg/L in assay [2]; above 30 mg/L in assay [3]; above 30 mg/L in assay [4]; 128 mg/L (≈ 159 µM) in the assay with Pasteurella multocida. Further, in the assay with Pseudomonas aeruginosa, the MIC came to 16 mg/L (≈ 19.9 µM).
